In US20230167467A1, “METHODS AND COMPOSITIONS FOR THE PRODUCTION OF ISOBUTENE” (University of Alaska Anchorage, priority 2020, published 2023):

System: Engineered strains of E. coli
Format: cell-based
[1] = after solvent exposure, vs positive control

**Q.** Which results are given for CCCCCC [hexane]?
**A.** expression of acid resistance genes (gad, adi families): downregulated; expression of chaperone proteins groLS, spy, and dnaJK: highly upregulated; expression of dihydroxyacetone kinase genes dhaKLM: upregulated; expression of flagellar protein synthesis and assembly genes: downregulated; expression of gadE and adiY: significantly downregulated; expression of galactitol metabolism genes gatABD: upregulated; expression of glpABC (glycerol to glycerone phosphate): upregulated; expression of heat shock proteins and chaperones hslJORUV: strongest increases; expression of ibpAB and clpAB (protein protection and repair): strongest increases; expression of marABC (multiple antibiotic resistance): upregulated; expression of nitrate reductase genes narGHJKP: upregulated; expression of phage shock genes pspABCDE: highly upregulated; change in expression of gene adiA [1]: −4.64 ± 0.88; change in expression of gene adiC [1]: −4.53 ± 1.04; change in expression of gene adiY [1]: −3.19 ± 0.66; change in expression of gene bhsA [1]: 3.01 ± 0.60; change in expression of gene bssR [1]: 1.50 ± 0.44; change in expression of gene bssS [1]: 5.47 ± 0.84; change in expression of gene clpA [1]: 2.49 ± 0.63; change in expression of gene clpB [1]: 5.02 ± 0.69; change in expression of gene clpP [1]: 1.52 ± 0.59; change in expression of gene coaA [1]: −2.34 ± 0.88; change in expression of gene coaD [1]: 0.57 ± 0.90; change in expression of gene cspA [1]: −4.08 ± 0.57; change in expression of gene cspB [1]: −4.25 ± 1.30; change in expression of gene cspC [1]: −2.22 ± 0.90; change in expression of gene cspD [1]: 2.07 ± 0.57; change in expression of gene cspE [1]: −0.53 ± 0.63; change in expression of gene cspF [1]: −3.67 ± 1.04; change in expression of gene dhaK [1]: 3.83 ± 0.58; change in expression of gene dhaL [1]: 2.77 ± 0.62; change in expression of gene dnaJ [1]: 4.46 ± 0.69; change in expression of gene dnaK [1]: 4.31 ± 0.66; change in expression of gene fabA [1]: −0.96 ± 0.75; change in expression of gene fabB [1]: 2.15 ± 0.66; change in expression of gene fabD [1]: −0.89 ± 0.52; change in expression of gene flgA [1]: −2.91 ± 1.55; change in expression of gene flgB [1]: −6.86 ± 1.62; change in expression of gene flgC [1]: −7.12 ± 2.02; change in expression of gene flgD [1]: −6.97 ± 1.94; change in expression of gene flgE [1]: −5.83 ± 1.20; change in expression of gene flgF [1]: −5.93 ± 1.66; change in expression of gene flgG [1]: −5.59 ± 1.51; change in expression of gene flgH [1]: −4.58 ± 1.75; change in expression of gene gabD [1]: −1.81 ± 1.34; change in expression of gene gabP [1]: −3.20 ± 1.33; change in expression of gene gabT [1]: −1.73 ± 1.30; change in expression of gene gadA [1]: −1.47 ± 0.68; change in expression of gene gadB [1]: −0.69 ± 0.80; change in expression of gene gadC [1]: −0.25 ± 0.80; change in expression of gene gadE [1]: −2.22 ± 0.60; change in expression of gene gadW [1]: −4.92 ± 0.97; change in expression of gene gadX [1]: −2.95 ± 0.57; change in expression of gene gadY [1]: −5.22 ± 0.81; change in expression of gene glpA [1]: 7.69 ± 0.87; change in expression of gene glpB [1]: 5.40 ± 0.63; change in expression of gene glpC [1]: 6.04 ± 0.79; change in expression of gene groL [1]: 4.16 ± 0.57; change in expression of gene groS [1]: 4.25 ± 0.50; change in expression of gene hchA [1]: 0.77 ± 0.60; change in expression of gene hslJ [1]: 2.29 ± 0.65; change in expression of gene hslO [1]: 3.04 ± 0.64; change in expression of gene hslR [1]: 3.21 ± 0.65; change in expression of gene hslU [1]: 3.61 ± 0.55; change in expression of gene hslV [1]: 2.94 ± 0.61; change in expression of gene ibpA [1]: 7.63 ± 1.21; change in expression of gene ibpB [1]: 8.41 ± 1.50; change in expression of gene lhgO [1]: −1.20 ± 1.67; change in expression of gene lipA [1]: 0.42 ± 0.59; change in expression of gene lipB [1]: −0.05 ± 0.63; change in expression of gene narG [1]: 4.03 ± 0.65; change in expression of gene narH [1]: 3.23 ± 0.61; change in expression of gene narI [1]: 2.02 ± 0.92; change in expression of gene narJ [1]: 2.26 ± 0.68; change in expression of gene narK [1]: 2.20 ± 0.84; change in expression of gene potA [1]: −2.87 ± 0.80; change in expression of gene potB [1]: −2.22 ± 1.29; change in expression of gene potC [1]: −1.06 ± 1.18; change in expression of gene pspA [1]: 8.97 ± 0.55; change in expression of gene pspB [1]: 7.11 ± 0.68; change in expression of gene rpoA [1]: 0.76 ± 0.44; change in expression of gene rpoB [1]: 0.54 ± 0.40; change in expression of gene rpoC [1]: 1.02 ± 0.39; change in expression of gene rpoD [1]: 3.14 ± 0.70; change in expression of gene rpoE [1]: −2.64 ± 0.62; change in expression of gene rpoH [1]: 0.31 ± 0.52; change in expression of gene rpoN [1]: −1.24 ± 0.49; change in expression of gene rpoS [1]: 0.42 ± 0.47; change in expression of gene rpoZ [1]: −0.98 ± 0.53; change in expression of gene spy [1]: 4.12 ± 0.87; change in expression of gene tatA [1]: −0.89 ± 0.51; change in expression of gene tatB [1]: −0.66 ± 0.58; change in expression of gene tatC [1]: −1.03 ± 1.08; change in expression of gene tatD [1]: −2.65 ± 1.13; change in expression of gene tatE [1]: 0.78 ± 0.63; number of genes with significant changes in expression (vs control, Bon Ferroni corrected p-value<0.05): 535 genes
